Data published in article PMC12610274, “Identification of Marrubiin as a Cathepsin C Inhibitor for Treating Rheumatoid Arthritis” (Molecules, 2025).

What was measured:
CTSC = biological target: T1, CTSC (Mus musculus, UniProt P97821); experiment: CTSC activity in blood and bone marrow of mice; type: in vivo, C57BL/6 mice; conditions: 30 mg/kg daily gavage, 7 days
T1 construct: from tissue; host or cells: mouse blood and bone marrow lysates
Method: (§1) A total of 25 C57BL/6 mice (6–8 weeks old, weighing approximately 20 g, with equal numbers of males and females) were randomly divided into five groups. Mice in the compound-treated groups were orally administered the compound once daily at doses of 0.3, 3, and 30 mg/kg for 7 consecutive days. […] Mice in the normal group were given an equal volume of normal saline at the same time points. The body weight, death rate, and behavior were observed and recorded daily for one week. After 7 days, bone marrow and blood samples were collected from the mice and lysed using 8% Triton X-100 buffer. The lysates were stored at −20 °C until testing. The activity assays for CTSC and NSPs were performed as described above. The mice were anesthetized and the tissues were taken for H&E staining.

PR3 [1] = experiment: NSPs activity in U937 cells after 5 days of treatment, PR3; type: cell-based, human; conditions: U937, 10 μM
Method: U937 cells in the logarithmic growth phase were collected and equally divided into six portions. Four of these portions were treated with DMSO solutions of the test compound at varying concentrations to achieve final concentrations of 1.25, 2.5, 5, and 10 μM, respectively. An equal volume of DMSO was added to one portion as a blank control, while another portion treated with a DMSO solution of AZD7986 served as a positive control. The cells were cultured under standard U937 conditions for 5 consecutive days, with daily medium changes and fresh compound treatments administered using the same protocol. Following 5 days of treatment, cells were harvested, washed twice thoroughly with phosphate-buffered saline, and lysed in phosphate-buffered saline containing 1% Triton X-100. The lysates were centrifuged to collect the supernatant, and protein concentrations were determined as previously described to ensure equal total protein loading across all samples. The prepared samples were stored at −20 °C until further analysis. Different assay buffers were prepared for diluting samples and measuring the activities of specific NSPs: a buffer containing 50 mM Tris and 750 mM NaCl (pH 7.4) was used for NE and PR3; a buffer containing 50 mM Tris, 750 mM NaCl, 5 mM EDTA (pH 7.4) was used for Cat G; and a buffer containing 25 mM MES, 50 mM NaCl, 5 mM DTT (pH 6.0) was used for CTSC. […]

NE = NE activity in blood and bone marrow of mice; type: in vivo, C57BL/6 mice; conditions: 30 mg/kg daily gavage, 7 days
Method: as §1

Dipeptidyl Peptidase 4 = Dipeptidyl Peptidase 4 (Homo sapiens, UniProt P27487); experiment: Recombinant dipeptidyl peptidases isolated enzyme assay, DPP4; type: biochemical; conditions: read-out: Dipeptidyl Peptidase 4 Enz (IC50: μM)
From the text: Table 3 Inhibitory effects of marrubiin on dipeptidyl peptidase. | column: Dipeptidyl Peptidase 4 Enz (IC50: μM)

PR3 [2] = biological target: T2, PR3 (Homo sapiens, UniProt P24158); experiment: Recombinant NSPs isolated enzyme assay, PR3; type: biochemical; conditions: read-out: PR3 Enz (IC50: μM)
T2 construct: purchased MedChemExpress
From the text: The protocol for evaluating the inhibitory potency of compounds against other cathepsins referred to the CTSC activity assay. Recombinant human CTSB, CTSL, CTSS and CTSK for testing were also purchased from R&D Systems Biotechnology Company. Recombinant human Cat G, NE, and PR3 For testing were purchased from MedChemExpress. A multi-functional microplate reader was used to measure the absorption of Z-Leu-Arg-AMC at excitation/emission wavelengths of 380/460 nm to assess the activity changes of CTSB and CTSL, while the absorption of MCA-Arg-Pro-Lys-Pro-Val-Glu-NVAL-Trp-Arg-Lys(DNP)-NH2 at 320/405 nm was measured to evaluate the activity changes of CTSS and CTSK. Different assay buffers were prepared for diluting samples and measuring the activities of specific NSPs: a buffer containing 50 mM Tris and 750 mM NaCl (pH 7.4) was used for NE and PR3; a buffer containing 50 mM Tris, 750 mM NaCl, 5 mM EDTA (pH 7.4) was used for Cat G; and a buffer containing 25 mM MES, 50 mM NaCl, 5 mM DTT (pH 6.0) was used for CTSC. Synthetic substrates were employed to assess the activities of NSPs and CTSC: H-Gly-Arg-AMC for CTSC, N-MeSuc-Ala-Ala-Pro-Val-pNA for NE, aminobenzoyl-Val-Ala-Asp-Cys-Ala-Asp-Gln-ethylenediamine 2,4-dinitrophenyl for PR3, and N-Suc-Ala-Ala-Pro-Phe-pNA for Cat G. Each group of tests was independently repeated at least 3 times, and IC50 values were calculated using SPSS 10.0.

[3] = Cytotoxicity assay, U937 cell line; type: cell-based; conditions: human, U937 cells
Method: RAW264.7 cells and U937 cells in the logarithmic growth phase were counted and diluted, and the concentrations of the single-cell suspensions of the two types of cells were adjusted to 5 × 10^4 cells/mL and 3 × 10^4 cells/mL, respectively. After thorough mixing, the cells were seeded into a 96-well plate, with 100 μL of cell suspension added to each well. Prepare the working solution of test compounds using the corresponding medium as the solvent, with the concentration of working solution being 2 times the final test concentration (2.5 μM, 5 μM, 10 μM, 20 μM, and 40 μM). Twenty-four hours after cell seeding, the compound working solutions were added to the compound test wells, and the same volume of medium was added to the negative control wells, followed by continuous incubation for another 24 h. Only the wells with the same volume but without cells served as the blank control group. The CellTiter-Lumi™ luminescent cell viability assay kit (Beyotime Biotechnology, Shanghai, China, C0065XL) was used to detect cell viability according to the standard operating procedures. Each group of tests was independently repeated at least 3 times, and IC50 values were calculated using SPSS 10.0.

T1 sequence (P97821 25-462): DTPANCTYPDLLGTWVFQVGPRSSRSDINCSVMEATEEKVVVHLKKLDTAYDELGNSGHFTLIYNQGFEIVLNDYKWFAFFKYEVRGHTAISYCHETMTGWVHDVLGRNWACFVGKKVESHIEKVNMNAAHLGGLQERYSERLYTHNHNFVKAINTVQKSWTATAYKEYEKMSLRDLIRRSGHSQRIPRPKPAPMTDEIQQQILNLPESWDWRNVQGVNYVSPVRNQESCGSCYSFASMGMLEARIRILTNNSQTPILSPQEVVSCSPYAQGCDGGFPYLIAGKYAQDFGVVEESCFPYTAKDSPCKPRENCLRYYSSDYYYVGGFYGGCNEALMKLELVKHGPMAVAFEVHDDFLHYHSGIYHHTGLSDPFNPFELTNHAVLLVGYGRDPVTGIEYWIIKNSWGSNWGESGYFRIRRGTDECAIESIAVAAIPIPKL
Chain of Dipeptidyl Peptidase 4 (P27487 whole entry, species assumed): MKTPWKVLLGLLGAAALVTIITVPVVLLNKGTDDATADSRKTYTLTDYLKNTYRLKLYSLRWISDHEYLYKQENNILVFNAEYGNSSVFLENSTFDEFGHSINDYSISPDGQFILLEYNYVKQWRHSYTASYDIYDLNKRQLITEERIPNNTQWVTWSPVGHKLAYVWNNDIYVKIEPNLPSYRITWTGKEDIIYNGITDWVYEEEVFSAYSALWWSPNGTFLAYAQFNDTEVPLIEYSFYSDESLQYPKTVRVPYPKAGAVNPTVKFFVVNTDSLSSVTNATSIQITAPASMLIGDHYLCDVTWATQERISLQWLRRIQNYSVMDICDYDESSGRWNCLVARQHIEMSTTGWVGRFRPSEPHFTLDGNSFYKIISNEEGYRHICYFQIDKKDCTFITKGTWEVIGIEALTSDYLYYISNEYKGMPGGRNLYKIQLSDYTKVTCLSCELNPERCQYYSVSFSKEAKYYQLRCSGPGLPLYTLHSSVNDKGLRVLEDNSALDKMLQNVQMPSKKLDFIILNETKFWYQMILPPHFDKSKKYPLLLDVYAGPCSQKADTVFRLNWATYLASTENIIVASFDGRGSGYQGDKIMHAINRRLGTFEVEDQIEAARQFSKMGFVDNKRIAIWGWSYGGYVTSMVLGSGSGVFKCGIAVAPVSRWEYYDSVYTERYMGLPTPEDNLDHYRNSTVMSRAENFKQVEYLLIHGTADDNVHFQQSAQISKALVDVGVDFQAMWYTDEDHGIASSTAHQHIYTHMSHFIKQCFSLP
T2 sequence (P24158 28-256): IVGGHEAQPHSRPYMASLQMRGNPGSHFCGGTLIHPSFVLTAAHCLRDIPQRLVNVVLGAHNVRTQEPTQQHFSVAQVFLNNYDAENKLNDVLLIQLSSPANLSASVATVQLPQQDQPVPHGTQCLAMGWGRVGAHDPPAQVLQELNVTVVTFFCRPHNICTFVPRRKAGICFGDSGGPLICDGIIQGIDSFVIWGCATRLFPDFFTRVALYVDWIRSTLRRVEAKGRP

C[C@@H]1C[C@H]2OC(=O)[C@@]3(C)CCC[C@@](C)([C@@H]23)[C@@]1(O)CCc1ccoc1 [Marrubiin, marrubiin]
remaining activity rate of CTSC (CTSC; blood): ~25.5%
remaining activity rate of CTSC (CTSC; bone marrow): approximately 15.5%
PR3 activity, % of DMSO group (PR3 [1]): 10.3%
remaining activity rate of NE (NE; blood): ~9.9%
remaining activity rate of NE (NE; bone marrow): ~20.9%
IC50 (Dipeptidyl Peptidase 4): > 10 µM
IC50 (PR3 [2]): > 10 µM
IC50 at 24 h [3]: > 10 µM
